Data published in US20230138729A1, “Coumarin Derivatives of Sugar Analogs and Uses Thereof” (Rubedo Life Sciences, Inc., priority 2021, published 2023).

What was measured:
[1] = molecular target: T1, Recombinant human GLB1 (rhGLB1) (Homo sapiens, UniProt P16278); test: Enzymatic hydrolysis by recombinant human GLB1 (fluorescence reaction velocity); format: biochemical; conditions: compound 500 uM; for Average percent of MU-Gal reaction velocity: pH 4.4, 37° C., relative to positive control MU-Gal; for rhGLB1 substrate: pH 4.4 McIlvaine Buffer, 37° C.
T1 sequence (P16278 29-677): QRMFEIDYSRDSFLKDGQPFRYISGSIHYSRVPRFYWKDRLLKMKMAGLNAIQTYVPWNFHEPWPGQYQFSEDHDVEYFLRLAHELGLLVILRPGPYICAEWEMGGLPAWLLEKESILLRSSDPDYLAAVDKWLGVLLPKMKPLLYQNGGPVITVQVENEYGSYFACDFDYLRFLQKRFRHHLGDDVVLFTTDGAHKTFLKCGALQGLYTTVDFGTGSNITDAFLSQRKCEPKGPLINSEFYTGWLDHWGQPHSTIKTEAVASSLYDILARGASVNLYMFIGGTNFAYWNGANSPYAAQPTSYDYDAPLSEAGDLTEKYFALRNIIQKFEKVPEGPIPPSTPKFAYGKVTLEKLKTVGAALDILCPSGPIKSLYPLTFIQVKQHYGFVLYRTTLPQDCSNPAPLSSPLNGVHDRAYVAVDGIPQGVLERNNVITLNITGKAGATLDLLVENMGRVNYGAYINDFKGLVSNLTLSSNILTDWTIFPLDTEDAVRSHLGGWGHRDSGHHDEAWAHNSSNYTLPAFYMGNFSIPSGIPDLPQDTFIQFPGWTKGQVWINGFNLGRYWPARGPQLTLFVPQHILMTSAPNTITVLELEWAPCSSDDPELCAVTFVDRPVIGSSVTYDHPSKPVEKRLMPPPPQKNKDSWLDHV
Description: (§1) Compounds were added to wells of a black-walled clear bottom 96 well plate at a concentration of […]. 4-methylumbelliferyl-alpha-L-fucopyranoside (referred to as MU-Fuc, CAS 54322-38-2) or 4-methylumbelliferyl-beta-D-galactopyranoside (referred to as MU-Gal, CAS 6160-78-7) were included as positive control compounds. Recombinant human FUCA1 (1-25 nM) or GLB1 (2-50 nM) in reaction buffer comprised of pH 4.4 McIlvaine Buffer, 2 mM dithiothreitol and 0.1% (v/v) Tween-20 was added to the wells. Enzyme-free controls were included to check for spontaneous compound hydrolysis. The plate was shaken and incubated at 37° C. in the plate reader. Every 5 minutes, fluorescence was read at the excitation wavelength of 330 nm and the emission wavelength of 450 nm for up to 3 hours. Linear regressions were calculated during the linear phase of the reaction to calculate the reaction velocity at each concentration of compound. Reaction velocities for compounds at 500 uM were compared as a percentage of the appropriate positive control compound.
Hydrolysis by the recombinant human GLB1 (rhGLB1) enzyme of modified galactose sugars conjugated to 4-methylumbelliferone was assessed by quantifying the generation of fluorescence over time as described in Example 10 and is compiled in Table 1, supra. Reaction rates of each compound were compared to the hydrolysis rate of the unmodified galactose conjugate MU-Gal. Of the modified galactose compounds tested, compound 42 was rapidly hydrolyzed, at a rate about 8% of that of MU-Gal. Compounds 33 and 6 were hydrolyzed with reaction velocities about 4% or 3% of that of MU-Gal, respectively. Compounds 35, 31, and 27 were hydrolyzed by rhGLB1, but slowly compared to MU-Gal with rates less than 2% of that of MU-Gal.

[2] = molecular target: T2, Recombinant human FUCA1 (rhFUCA1) (Homo sapiens, UniProt P04066); test: Enzymatic hydrolysis by recombinant human FUCA1 (fluorescence reaction velocity); format: biochemical; conditions: compound 500 uM; for Average reaction velocity relative to MU-Fuc (%): pH 4.4, 37° C., relative to positive control MU-Fuc; for rhFUCA1 substrate: pH 4.4 McIlvaine Buffer, 37° C.
T2 sequence (P04066 32-466): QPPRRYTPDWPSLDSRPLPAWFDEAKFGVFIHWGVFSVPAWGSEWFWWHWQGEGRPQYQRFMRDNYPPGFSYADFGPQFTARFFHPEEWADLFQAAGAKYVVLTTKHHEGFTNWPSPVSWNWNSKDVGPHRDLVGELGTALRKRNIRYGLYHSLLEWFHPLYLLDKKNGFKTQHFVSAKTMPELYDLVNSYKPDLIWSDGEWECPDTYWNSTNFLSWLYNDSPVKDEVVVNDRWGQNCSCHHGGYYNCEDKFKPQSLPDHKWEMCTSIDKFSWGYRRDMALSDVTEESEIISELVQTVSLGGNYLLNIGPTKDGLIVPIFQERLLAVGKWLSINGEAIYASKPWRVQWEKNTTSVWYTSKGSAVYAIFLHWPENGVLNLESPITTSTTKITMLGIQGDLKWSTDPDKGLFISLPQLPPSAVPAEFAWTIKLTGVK
Description: as §1
Hydrolysis by the recombinant human FUCA1 enzyme (rhFUCA1) of modified fucose sugars conjugated to 4-methylumbelliferone or 7-amino-4-methylcoumarin was assessed by quantifying the generation of fluorescence over time as described in Example 10 and is compiled in Table 1, supra. Reaction rates of each compound were compared to the hydrolysis of the unmodified fucose conjugate MU-Fuc (14). Compound 43 was hydrolyzed by rhFUCA1 at a velocity about 35% of that of MU-Fuc. The reaction rate of 19 with rhFUCA1 was about 30% of that of MU-Fuc.

[3] = test system: T47D breast cancer cells (sgNTC control); test: Cellular hydrolysis of compounds in live T47D control cells (4-MU fluorescence); format: cell-based; conditions: compound 30 uM, naked sugar and acetylated version; for Average percent of product relative to 26 at 72 hours in T47D control cells: modified galactose conjugates
Description: (§2) T47D breast cancer cells were cultured in RPMI 1640 medium containing 10% heat inactivated fetal bovine serum. Cell lines were infected with lentiviral construct(s) containing S. pyogenes Cas9 and sgRNA(s) targeting the gene(s) of interest (sgNTC, non-targeting control; sgFUCA1_1, FUCA1 knockout). Infected cells were selected by antibiotic treatment. To assess the cellular hydrolysis of compounds, cells were seeded at 3-20,000 cells per well into 96-well plates and incubated at 37° C. with 5% CO2. The next day, compounds (30 uM) were added to the cells. Wells containing only compounds in media were included as background fluorescence controls. 4-methylumbelliferyl-alpha-L-fucopyranoside (referred to as MU-Fuc, CAS 54322-38-2) or 4-methylumbelliferyl-2,3,4,6-tetra-O-acetyl-beta-D-galactopyranoside (CAS 6160-79-8) were included as positive controls. A 4-methylumbelliferone (referred to as 4-MU, CAS 90-33-5) standard ladder ranging from 39 to 5000 pmoles was added to each cell line. Fluorescence was read at the excitation wavelength of 330 nm and the emission wavelength of 450 nm on the plate reader every 24 hours for 72 hours. The plate was returned to the 37° C. 5% CO2 incubator between readings. A linear regression was performed to determine the slope of the line relating fluorescence to pmoles of 4-MU standard at each time point. The average cell-free background fluorescence for each compound at each time point was subtracted from all compound sample fluorescence measurements. Compound sample fluorescence was converted to pmoles of 4-MU by dividing by the slope of the 4-MU linear regression. The amount of 4-MU present at 72 hours for each compound in each cell line was compared as a percentage of the appropriate positive control compound.
The hydrolysis of modified galactose sugars conjugated to 4-methylumbelliferone in live cells was assessed by incubating the compounds in media with T47D breast cancer cells for 3 days and quantifying the generation of fluorescence over time as described in Example 11 and is compiled in Table 3, supra. […]

[4] = test system: T47D FUCA1 knockout cells; test: Cellular hydrolysis in T47D FUCA1 knockout cells versus T47D control cells; format: cell-based; conditions: compound 30 uM
Description: as §2, with “4-methylumbelliferyl-alpha-L-fucopyranoside (referred to as MU-Fuc, CAS 54322-38-2) or 4-methylumbelliferyl-2,3,4,6-tetra-O-acetyl-beta-D-galactopyranoside (CAS 6160-79-8) were included as positive controls. A 4-methylumbelliferone (referred to as 4-MU, CAS 90-33-5) standard ladder ranging from 39 to 5000 pmoles was added to each cell line.” left out, “The plate was returned to the 37° C.” left out, “The amount of 4-MU present at 72 hours for each compound in each cell line was compared as a percentage of the appropriate positive control compound.” left out

| rhGLB1 substrate [1] | rhFUCA1 substrate [2] | Compound | Average percent of MU-Gal reaction velocity [1] | further results |
| --- | --- | --- | --- | --- |
| yes | yes | Cc1cc(=O)oc2cc(O[C@@H]3O[C@@H](C)[C@@H](O)[C@@H](O)[C@@H]3O)ccc12 [Compound 14, 4-methyl-7-(((2S,3S,4R,5S,6S)-3,4,5-trihydroxy-6-methyltetrahydro-2H-pyran-2-yl)oxy)-2H-chromen-2-one, reference compound] | 7.6% | Average reaction velocity relative to MU-Fuc (%) [2]: 100%; Average percent of product relative to MU-Fuc (14) at 72 hours by T47D control cells ([3]; modified fucose conjugates): 100% |
|  | yes | Cc1cc(=O)oc2cc(O[C@H]3C[C@H](O)[C@H](O)[C@H](C)O3)ccc12 [Compound 19, (2S,3R,4S,6S)-2-methyl-6-((4-methyl-2-oxo-2H-chromen-7-yl)oxy)tetrahydro-2H-pyran-3,4-diyl diol] |  |  |
| not hydrolyzed and no |  | Cc1cc(=O)oc2cc(O[C@H]3C[C@@H](O)[C@@H](O)[C@@H](CO)O3)ccc12 [Compound 24] | 0% |  |
| yes |  | Cc1cc(=O)oc2cc(O[C@@H]3O[C@H](CO)[C@H](O)[C@H](F)[C@H]3O)ccc12 [Compound 31] |  |  |
| yes |  | Cc1cc(=O)oc2cc(O[C@@H]3O[C@H](CO)C[C@H](O)[C@H]3O)ccc12 [Compound 33] |  |  |
| yes |  | Cc1cc(=O)oc2cc(O[C@@H]3O[C@H](CO)[C@H](O)C[C@H]3O)ccc12 [Compound 35] |  |  |

The remaining lines, values behind:

| Compound | rhGLB1 substrate [1] | rhFUCA1 substrate [2] | Average percent of MU-Gal reaction velocity [1] | further results |
| --- | --- | --- | --- | --- |
| COc1ccc(C2O[C@H]3[C@H](O)[C@H](Oc4ccc5c(C)cc(=O)oc5c4)O[C@@H](C)[C@H]3O2)cc1 (stereo partly drawn) [Compound 43, 7-(((3aR,4S,6S,7S,7aS)-7-hydroxy-2-(4-methoxyphenyl)-4-methyltetrahydro-3aH-[1,3]dioxolo[4,5-c]pyran-6-yl)oxy)-4-methyl-2H-chromen-2-one] |  | yes |  |  |
| CC(=O)O[C@H]1[C@H](OC(C)=O)[C@H](Oc2ccc3c(C)cc(=O)oc3c2)O[C@@H](C)[C@H]1OC(C)=O [Compound 44] |  |  |  | Average percent of product formed by each compound at 72 hours in T47D FUCA1 knockout cells relative to product formed in T47D control cells [4]: 8% |
| Cc1cc(=O)oc2cc(NC(=O)OCc3ccc(O[C@@H]4O[C@@H](C)[C@@H](O)[C@@H](O)[C@@H]4O)cc3)ccc12 [Compound 50, [4-[(2S,3S,4R,5S,6S)-3,4,5-trihydroxy-6-methyl-tetrahydropyran-2-yl]oxyphenyl]methyl N-(4-methyl-2-oxo-chromen-7-yl)carbamate] |  | yes |  | Average reaction velocity relative to MU-Fuc (%) [2]: 16.7% |
| Cc1cc(=O)oc2cc(NC(=O)OCc3ccc(NC(=O)O[C@@H]4O[C@@H](C)[C@@H](O)[C@@H](O)[C@@H]4O)cc3)ccc12 [Compound 59, [4-[[(2S,3S,4R,5S,6S)-3,4,5-trihydroxy-6-methyl-tetrahydropyran-2-yl]oxycarbonylamino]phenyl]methyl N-(4-methyl-2-oxo-chromen-7-yl)carbamate] |  | yes |  |  |
| Cc1cc(=O)oc2cc(O[C@@H]3O[C@H](CO)[C@H](O)[C@H](O)[C@H]3O)ccc12 [MU-Gal, 4-methylumbelliferyl-beta-D-galactopyranoside, reference compound] | yes |  | 100% |  |
| (2R,3S,4S,5R,6S)-2-(acetoxymethyl)-5-fluoro-6-((4-methyl-2-oxo-2H-chromen-7-yl)oxy)tetrahydro-2H-pyran-3,4-diyl diol [Compound 20] | not hydrolyzed and no |  | 0% | Average percent of product relative to 26 at 72 hours in T47D control cells [3]: 0% |
| (2S,3R,4R,5S,6S)-5-fluoro-2-methyl-6((4-methyl-2-oxo-2H-chromen-7-yl)oxy)tetrahydro-2H-pyran-3,4-diyl diacetate [Compound 27] | yes |  |  | Average percent of product relative to 26 at 72 hours in T47D control cells [3]: 13% |
